For this assay, the system named is Clone20 osteoblast Shn3 3'UTR firefly luciferase, 24 h. The assay can be described thus: Shn3 3'UTR reporter inhibitors, dose response, cell-based, Clone20 osteoblasts, luminescence, dry powder, set 2 (AID 743417).

Inconclusive results are not listed. Activity calls are given as the source filed them.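 Rule for the calls: active = compounds lowering the luciferase signal with a fitted half-maximal dose at most twice their top valid dose (cut at about 30 µM in these data); inconclusive = flat fits with moderate signal loss, or poor fits; inactive = the rest.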

Usually AC50 stands for the concentration at which the activity in the assay is half-maximal.

As for `CCS(=O)(=O)c1ncc(Cl)c(C(=O)Nc2ccc(S(=O)(=O)N(C)c3ccccc3)cc2)n1`, the AC50 was 0.308 µM.
For `CCN(CC)C(=O)c1oc2ccc(S(=O)(=O)N3CC(C)CC(C)C3)cc2c1C` (stereo not drawn) the value was 1.02 µM; for `O=C(Nc1ccccc1)C1=C(c2ccccc2)S(=O)(=O)CCS1(=O)=O`, 1.37 µM.
For `CCOC(=O)C1(Cc2cccc(OC)c2)CCN(C/C=C/c2ccc(OC)cc2)CC1` the value was 4.75 µM.
On to `C#CC(=O)N(c1cccc(OC)c1)C(C(=O)NC1CCCC1)c1cccs1` (stereo not drawn), for which the AC50 is 3.8 µM.
Under `CCCCCCN1C[C@H](n2cc(-c3ccc(F)cc3)nn2)[C@@H](O)C[C@@H]1c1ccc(Cl)cc1` stands 10.3 µM; under `CCOc1ccc(N2C(=O)CC(Sc3nnnn3-c3ccccc3)C2=O)cc1` (stereo not drawn), 11.5 µM; under `CCN1CCN(Cc2ccc(NC(=O)c3cc(NC(=O)c4cncc(-c5cccs5)c4)cc(OC)c3)cc2C(F)(F)F)CC1`, 9.68 µM.
For `CCN(CC)CCNc1cc(C)nc2c1C(=O)C(=O)C=C2N1CCCCC1` the value was 6.61 µM.
Regarding `O=C(Nc1nc(-c2ccccn2)cs1)C1COc2ccccc2O1` (stereo not drawn), the AC50 is 5.81 µM.
Under `O=C1C(F)=CC(COC(c2ccccc2)(c2ccccc2)c2ccccc2)OC1n1cc(F)c(=O)[nH]c1=O` (stereo not drawn) stands 0.428 µM.
Under `COc1ccc(Cn2c(SCc3ccccc3C)nc3cc(OC)c(OC)cc3c2=N)cc1` stands 5.46 µM; under `COC(=O)c1c(-c2cccc3ccccc23)csc1NC(=O)Cc1ccc(OC)c(OC)c1`, 5.43 µM.
For the molecule `Cc1ccc(C)c(S(=O)(=O)N2CCN(c3ncnc4sccc34)CC2)c1`, the AC50 was 0.631 µM.
For `O=C(Nc1ccc(Cl)cc1)/C(=C/c1cccc(O)c1)c1nc2ccccc2s1` the value was 3.53 µM; for `O=C(COC(=O)c1n[nH]c2ccccc12)Nc1ccc(S(=O)(=O)N2CCCC2)cc1`, 5.33 µM; for `O=C(CSc1nnc(Cn2nnc3ccccc32)o1)N(Cc1ccc(Cl)cc1)c1ccccc1`, 2.29 µM.
`O=C1ON=C(c2ccccc2)/C1=C/c1ccc(-c2ccccc2[N+](=O)[O-])o1`: the AC50 was 7.21 µM.
For `CC1Cc2cc(S(=O)(=O)N3CCN(c4ccc(Cl)cc4)CC3)ccc2N1C(=O)C1CC1` (stereo not drawn) the value was 4.26 µM.
Turning to `CCN1CCN(Cc2ccc(NC(=O)c3cc(NC(=O)c4cncc(-c5ccc(C#N)cc5)c4)cc(OC)c3)cc2C(F)(F)F)CC1`, the AC50 was 3.36 µM.
For `C[C@H]1C[C@@H](C)C(=O)[C@@H]([C@H](O)CC2CC(=O)NC(=O)C2)C1` the value was 0.307 µM; for `CC(=O)OC[C@]12CC[C@H]3[C@@](C)(CC[C@H]4C(C)(C)CCC[C@]34C)[C@@H]1CC(C1=CC(=O)OC1O)O2` (stereo partly drawn), 0.634 µM.
For `Cc1ccc(C)c(S(=O)(=O)N2CCN(C(=O)C3CCN(c4ncnc5sc(C)c(C)c45)CC3)CC2)c1` the value was 2.82 µM; for `Cc1cc(S(=O)(=O)c2ccc([N+](=O)[O-])cn2)ccc1Br`, 3.69 µM.
Regarding `O=C(Nc1cccc(C(F)(F)F)c1)c1sc(Cl)nc1C(F)(F)F`, the AC50 is 9.06 µM.
Under `O=C(Nc1ccc(N2CCOCC2)cc1)c1ccc(Cl)c(S(=O)(=O)N2CCCC2)c1` stands 2.17 µM; under `C=CCn1c(-c2ccc(S(=O)(=O)N3CCOCC3)cc2)csc1=Nc1ccccc1`, 1.52 µM.
For `COc1ccc(OCC(=O)NNC(=S)NC(=O)c2ccc(Br)o2)cc1` the value was 5.27 µM.
As for `CC(C)(C)c1cc(C(c2cccnc2)N2CCN(CCO)CC2)cc(C(C)(C)C)c1O` (stereo not drawn), the AC50 was 1.7 µM.
As to `C=C1C(=O)[C@@]23[C@H](O)C[C@@H]4C(C)(C)CC[C@H](O)[C@@]4(C)[C@@H]2CC[C@@H]1[C@H]3O`, the AC50 was 1.29 µM.
On to `Cn1c(/C=C/c2ccc(Cl)cc2Cl)c([N+](=O)[O-])c(=O)n(C)c1=O`, for which the AC50 is 6.87 µM.
For `Cc1ccc(NC(=O)c2oc3ccccc3c2COC(C)C)cc1S(=O)(=O)N1CCOCC1` the value was 14.4 µM; for `COc1ccc(C(C(=O)NC2CCCCC2)N(C(=O)CCl)c2ccc(OC)cc2)cc1` (stereo not drawn), 5.56 µM.
Consider `COc1ccc(NC(=O)CCOc2cc(C)ccc2C)cc1S(=O)(=O)N1CCCCC1`, for which the AC50 was 10.4 µM.
For `COC(=O)C12OCC34C(CC5C(C)=C(O)C(=O)CC5(C)C3C(O)C1O)OC(=O)C(OC(=O)C=C(C)C)C24` (stereo not drawn), the AC50 was less than 0.26 µM.
As to `CCn1c(CNC(=O)c2cc(OC)c(OC)c(OC)c2)cc2cc(C)ccc21`, the AC50 was 2.52 µM.
Regarding `C=C1C(=O)[C@]23C[C@H]1CCC2[C@@]1(C)C(C[C@@H]3O)[C@](C)(C(=O)OC)CC[C@@H]1OC(C)=O` (stereo partly drawn), the AC50 is 2.14 µM.
Turning to `C=C1C(=O)C23C(O)C1CCC2C12CCCC(C)(COC(C)=O)C1C(O)C3(O)OC2` (stereo not drawn), the AC50 was 0.771 µM.
For `O=c1cc(-c2ccc(O)cc2)oc2ccc3ccccc3c12` the value was 5.41 µM; for `Cc1ccc(Nc2c(-c3ccccn3)nc3cccc(C)n23)cc1`, 1.9 µM; for `CCCC(c1nnnn1Cc1ccc(OC)cc1)N1CCN(c2ccccc2)CC1` (stereo not drawn), 31.9 µM.
Consider `COC(=O)C1=C(c2ccc(F)cc2OCc2ccccc2)C[C@@H]2CC[C@H]1N2C(=O)NCc1ccc(C(F)(F)F)cc1`, for which the AC50 is 9.14 µM.
As for `CCc1ccc(NC(=O)C2CCN(S(=O)(=O)c3ccc4c(c3)NC(=O)C(C)S4)CC2)cc1` (stereo not drawn), the AC50 is 7.08 µM.
`Cc1ccc(Cn2c(=N)n(CC(O)COc3ccccc3)c3ccccc32)cc1` (stereo not drawn): the AC50 is 2.46 µM.
For `CCOc1ccc(/C=C/[N+](=O)[O-])c2ccccc12` the value was 4.27 µM.
Under `C=C1C(=O)OC2CC(C)C3C=CC(=O)C3(C)C(O)C12` (stereo not drawn) stands less than 0.26 µM.
Under `Cc1ccc(CNC(=O)c2cc(-c3ccccc3C)nn2CC2CC(c3cccnc3)=NO2)cc1` (stereo not drawn) stands > 70 µM (inactive); under `CCS(=O)(=O)c1ncc(Cl)c(C(=O)Nc2ccc(S(=O)(=O)N3CCCC(C)C3)cc2)n1` (stereo not drawn), less than 0.26 µM.
In the case of `Cc1ccc(CC(=O)Nc2ccncc2)cc1`, the AC50 was 2.39 µM.
Take `CC(Nc1ncnc2sccc12)c1ccccc1` (stereo not drawn): the AC50 was 0.505 µM.
Under `Cn1nc(-c2ccccn2)nc2c(=O)n(C)c(=O)nc1-2` stands 0.493 µM; under `CCn1c(C)cc(C(=O)COC(=O)c2ccccc2[N+](=O)[O-])c1C`, less than 0.26 µM.
Under `C=CCOc1nc2c(c(=O)n(C)c(=O)n2C)n1Cc1ccc(Cl)cc1` stands 1.03 µM; under `Cc1ccc(-c2ccc(/C=C3\C(=O)ON=C3c3ccccc3)o2)c([N+](=O)[O-])c1`, 3.3 µM; under `CC1CN(S(=O)(=O)c2ccc(C(=O)Nc3nc(-c4cc5ccccc5o4)cs3)cc2)CC(C)O1` (stereo not drawn), less than 0.26 µM.
Under `COc1ccc(NS(=O)(=O)c2ccc(NC(=O)C(CCSC)NC(N)=O)cc2)cc1` (stereo not drawn) stands > 70 µM (inactive).
As to `CCOC(=O)CC1CCCCN1C(=O)c1cc(COc2cccc3cnccc23)on1` (stereo not drawn), the AC50 was 0.713 µM.
For the molecule `COc1cc2c(OC(C)=O)c3c(c(-c4ccc5c(c4)OCO5)c2cc1OC)C(=O)OC3`, the AC50 was 1.8 µM.
Under `CCN1CCN(Cc2ccc(NC(=O)c3ccc(C)c(NC(=O)C(=O)c4c[nH]c5ccccc45)c3)cc2C(F)(F)F)CC1` stands 7.49 µM.
As for `Cc1ccc(S(=O)(=O)N2CCc3ccccc3CC2)cc1`, the AC50 was 3.29 µM.
For `OC[C@@H]1CN(Cc2ccc(-c3ccccc3)cc2)C[C@H](n2cnc3c(NCc4ccc(F)cc4)ncnc32)O1` the value was 1.58 µM; for `CC(C)CC(=O)NC(=S)Nc1ccc(N2CCN(C(=O)c3cccs3)CC2)cc1`, 2.54 µM.
`CCCn1c(C)cc(C(=O)CN2C(=O)c3ccccc3S2(=O)=O)c1C`: the AC50 was 2.98 µM.
For `COc1ccccc1-c1cc(C(F)(F)F)nc(S(=O)(=O)CCCC(=O)Nc2cc(C)on2)n1` the value was 6.57 µM.
Under `CCC(CC)CN1C(N(C)C)=NC[C@@H]1CC(C)C` stands 0.717 µM.
Turning to `COc1ccc(Cc2nccc3cc(OC)c(OC)cc23)cc1OC`, the AC50 is 2.48 µM.
Under `O=[N+]([O-])/C=C/c1cn(Cc2ccc(Cl)cc2)c2ccccc12` stands 8.32 µM.
Under `O=C(Nc1ccc([N+](=O)[O-])cc1Cl)c1cc(Cl)ccc1O` stands 3 µM; under `CC[C@H]1CN2CCc3cc(OC)c(OC)cc3[C@@H]2C[C@@H]1C[C@H]1NCCc2cc(OC)c(OC)cc21`, less than 0.26 µM.
Under `CC(=O)N(CCc1ccccc1)c1ccc2c(c1)C1CC2CCN1C(=O)OCc1ccccc1` (stereo not drawn) stands 14.3 µM; under `O=C(NCc1ccc2c(c1)OCO2)c1nc(S(=O)(=O)Cc2ccccc2F)ncc1Cl`, 5.19 µM; under `Cc1cccc(CCN2C(N(C)C)=NC[C@@H]2CC(C)C)c1`, 1.45 µM.
As for `O=C1C(Br)=C(c2ccccc2)C(c2ccccc2)=C1c1ccccc1`, the AC50 is 0.46 µM.
Take `CC(C)(C)NC(=O)NC(=O)CN1CCN(c2ccc(O)cc2)CC1`: the AC50 is 1.9 µM.
As to `Cc1ccc(S(=O)(=O)Nc2ccc(O)c3ncccc23)cc1`, the AC50 is 1.55 µM.
`CCOC(=O)C1(Cc2ccc(Cl)cc2)CCN(C(C)Cc2ccc(O)c(OC)c2)CC1` (stereo not drawn): the half-maximal activity concentration (AC50) is 1.33 µM.
For `CC(C)[C@H](NC(=O)OC(C)(C)C)c1nnc(S(=O)(=O)Cc2c(F)cccc2Cl)o1` the value was 1.08 µM; for `Cc1ccc(CS(=O)(=O)c2ncc(Cl)c(C(=O)Nc3nnc(C)s3)n2)cc1`, 0.639 µM.
As for `COc1ccc(-c2nc(-c3ccc(NC(=O)c4ccncc4)cc3)no2)cc1OC`, the AC50 was 2.36 µM.
Under `CC1Cc2ccccc2N1Cc1cccc(S(=O)(=O)N(C)C)c1` (stereo not drawn) stands 33 µM; under `Cc1nc2ccc(NC(=O)c3cccc(S(=O)(=O)N(C)c4ccccc4)c3)cc2s1`, 7.6 µM.
Under `Cc1cc([N+](=O)[O-])ccc1-c1ccc(C2Nc3ccccc3C(=O)N2O)o1` (stereo not drawn) stands 3.32 µM.
Under `O=C(Nc1nc2cc3c(cc2s1)OCCO3)C1=COCCO1` stands 2.17 µM.
In the case of `CCN(CC)CCn1c(=N)n(CC(O)COc2cccc(C)c2)c2ccccc21` (stereo not drawn), the AC50 was 4.39 µM.
For `Cc1ccc2nc(NC(=O)C3CCN(S(=O)(=O)c4ccc5c(c4)oc(=O)n5C)CC3)sc2c1` the value was 3.35 µM; for `CCCCN(c1nc2ccccc2nc1Cl)S(=O)(=O)c1ccc(C)cc1`, 7.22 µM; for `Cc1c(CCCl)c(Cl)n2c(nc3ccccc32)c1C#N`, 0.912 µM.
On to `O=C(N[C@@H]1C/C=C\C[C@H](CC(=O)N(CCO)Cc2ccccc2)C(=O)NC[C@@H](c2ccccc2)OC1=O)OCC1c2ccccc2-c2ccccc21`, for which the AC50 is 4.5 µM.

The values are drawn from PubChem BioAssay AID743417 (Broad Institute, 2014).
